In patent US20260234147A1 (priority 2023, published 2026):
Read-outs that look alike come from different tables or passages of the source.

What was measured:
hKOR = hKOR (Homo sapiens, UniProt P41145); experiment: Radioligand binding assay (Eurofins Cerep), [3H]U69,593 displacement
hDOR = hDOR (Homo sapiens, UniProt P41143); experiment: Radioligand binding assay (Eurofins Cerep), [3H]DADLE displacement
α2A adrenergic receptor = biological target: T1, α2A adrenergic receptor (Homo sapiens, UniProt P08913); experiment: Radioligand binding assay (Eurofins Cerep), [3H]RX 821002 displacement
T1 construct: Eurofins Cerep (contract screening)
T1 sequence (P08913 1-465): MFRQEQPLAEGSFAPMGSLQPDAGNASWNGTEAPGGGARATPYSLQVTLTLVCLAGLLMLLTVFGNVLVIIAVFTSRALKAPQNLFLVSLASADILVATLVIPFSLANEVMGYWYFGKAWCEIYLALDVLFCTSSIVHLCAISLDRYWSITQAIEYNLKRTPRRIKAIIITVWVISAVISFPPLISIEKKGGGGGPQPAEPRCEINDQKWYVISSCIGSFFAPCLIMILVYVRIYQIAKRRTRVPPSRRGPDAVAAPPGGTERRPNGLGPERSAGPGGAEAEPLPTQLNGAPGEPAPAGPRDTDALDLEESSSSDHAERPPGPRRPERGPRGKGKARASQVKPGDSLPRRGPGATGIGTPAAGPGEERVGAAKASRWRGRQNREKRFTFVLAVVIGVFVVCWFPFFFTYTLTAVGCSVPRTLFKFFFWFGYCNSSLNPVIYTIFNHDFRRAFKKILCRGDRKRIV

hMOR [1] = biological target: T2, hMOR (Homo sapiens, UniProt P35372); experiment: Radioligand binding assay (Eurofins Cerep), [3H]DAMGO displacement
hMOR [2] = biological target: T2, hMOR; experiment: cell-based; design: expressed in transfected cells; details: CHO
α2C adrenergic receptor = biological target: T3, α2C adrenergic receptor (Homo sapiens, UniProt P18825); experiment: Radioligand binding assay (Eurofins Cerep), [3H]RX 821002 displacement
T3 construct: Eurofins Cerep (contract screening)
T3 sequence (P18825 1-462): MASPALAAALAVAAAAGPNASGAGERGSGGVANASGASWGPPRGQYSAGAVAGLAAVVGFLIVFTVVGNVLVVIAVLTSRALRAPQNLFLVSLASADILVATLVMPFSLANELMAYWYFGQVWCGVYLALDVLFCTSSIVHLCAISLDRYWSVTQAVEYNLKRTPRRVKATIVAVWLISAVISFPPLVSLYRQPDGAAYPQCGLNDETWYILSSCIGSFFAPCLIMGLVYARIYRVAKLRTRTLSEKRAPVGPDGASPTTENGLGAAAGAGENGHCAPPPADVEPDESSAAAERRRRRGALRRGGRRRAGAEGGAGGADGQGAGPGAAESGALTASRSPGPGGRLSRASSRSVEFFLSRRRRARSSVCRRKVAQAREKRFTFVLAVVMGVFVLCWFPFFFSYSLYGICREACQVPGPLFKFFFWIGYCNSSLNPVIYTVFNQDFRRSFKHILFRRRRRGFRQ

[3] = Metabolic stability in rat liver microsomes; assay type: in vitro ADME; details: in vitro intrinsic clearance in RLM scaled to whole organ (rat)
Experimental: In vitro metabolic stability of each compound was determined using rat liver microsomes in triplicate. Verapamil was used as a positive control to check the activity of the microsomes. The incubation mixtures consisted of rat liver microsomes (1 mg microsomal protein/ml), substrate (1 μM), and reduced NADPH (1 mM) in a total volume of 0.4 ml potassium phosphate buffer (50 mM, pH 7.4). Reactions were initiated with the addition of NADPH and kept in an incubator shaker at 37° C. Aliquots of 25 μl were withdrawn at 0, 5, 10, 15, 30, and 60 min and mixed with 125 μl of acetonitrile with formic acid (0.1% v/v) containing phenacetin (50 ng/ml; internal standard) for the termination of the reaction. The samples were then vortex mixed and filtered through a […] 96-well membrane filtration plate under centrifugation at speed of 2000×g for 5 min at 4° C. The filtrates were subjected to UPLC-mass spectrometry (MS/MS) analysis.
The intrinsic clearance of the compounds was calculated using a half-life employing the ‘substrate depletion’ approach. The apparent half-life was calculated from the pseudo-first-order rate constants obtained by linear regression of log (concentration) and time plots. The in vitro intrinsic clearance of IFN was estimated using the formula: […]
Where k is the slope of the line obtained by plotting the natural logarithmic of the percentage of parent remaining versus time and V is the volume of incubation.
The in vitro intrinsic clearance was scaled to whole-organ (hepatic) in vivo intrinsic CL (CLint,H) using the scaling factors available in the literature using equation (Mahmood I. Application of allometric principles for the prediction of pharmacokinetics in human and veterinary drug development. Advanced drug delivery reviews, 2007, 59(11), 1177-1192)
MPPGL represents the microsomal protein per gram of Sprague Dawley rat liver (45 mg/g) and liver weight per kg body weight was 40 g/kg.

hMOR [4] = biological target: T2, hMOR; experiment: Cyclic adenosine 3′,5′-monophosphate (cAMP) assay in hMOR-CHO cells; assay type: cell-based; details: N=1, control agonist DAMGO
[5] = Table 3-1, 3 independent experiments, read-out: Ki (nM ± SEM) KOR
[6] = Table B1′, read-out: KOR Ki ± SEM
[7] = Table 3-1, 3 independent experiments, read-out: Ki (nM ± SEM) DOR
[8] = Table B1′, read-out: DOR Ki ± SEM
[9] = Table 3-1, 3 independent experiments, read-out: Ki (nM ± SEM) a2A-AR
[10] = Table B1′, read-out: alpha2A Ki ± SEM
[11] = Ki (nM ± SEM) a2C-AR, Table 3-1, 3 independent experiments
[12] = Table A1, data summary #1, read-out: KOR Ki ± SEM
[13] = Table A4, data summary #2, read-out: KOR Ki ± SEM

T2 sequence (P35372 whole entry): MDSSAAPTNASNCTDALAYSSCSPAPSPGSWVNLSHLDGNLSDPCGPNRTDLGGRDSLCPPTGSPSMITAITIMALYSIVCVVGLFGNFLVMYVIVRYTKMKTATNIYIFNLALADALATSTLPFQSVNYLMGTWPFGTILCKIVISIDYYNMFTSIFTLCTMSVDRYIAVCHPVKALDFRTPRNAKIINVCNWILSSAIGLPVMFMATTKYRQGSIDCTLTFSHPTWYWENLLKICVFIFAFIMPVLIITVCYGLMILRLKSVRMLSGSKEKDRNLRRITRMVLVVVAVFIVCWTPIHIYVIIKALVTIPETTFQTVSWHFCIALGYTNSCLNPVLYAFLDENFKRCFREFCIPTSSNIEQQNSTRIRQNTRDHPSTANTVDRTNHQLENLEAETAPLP
Sequence of hDOR (P41143 whole entry): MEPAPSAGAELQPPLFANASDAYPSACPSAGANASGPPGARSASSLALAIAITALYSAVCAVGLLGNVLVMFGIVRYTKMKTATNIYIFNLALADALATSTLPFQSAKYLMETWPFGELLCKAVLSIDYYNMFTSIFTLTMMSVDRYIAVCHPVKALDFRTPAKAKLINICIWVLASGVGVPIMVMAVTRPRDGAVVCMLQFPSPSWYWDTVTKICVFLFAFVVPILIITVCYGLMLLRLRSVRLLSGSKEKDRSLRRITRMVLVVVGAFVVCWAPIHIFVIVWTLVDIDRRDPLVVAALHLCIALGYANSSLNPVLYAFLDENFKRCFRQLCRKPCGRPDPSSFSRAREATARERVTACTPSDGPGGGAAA
Sequence of hKOR (P41145 whole entry): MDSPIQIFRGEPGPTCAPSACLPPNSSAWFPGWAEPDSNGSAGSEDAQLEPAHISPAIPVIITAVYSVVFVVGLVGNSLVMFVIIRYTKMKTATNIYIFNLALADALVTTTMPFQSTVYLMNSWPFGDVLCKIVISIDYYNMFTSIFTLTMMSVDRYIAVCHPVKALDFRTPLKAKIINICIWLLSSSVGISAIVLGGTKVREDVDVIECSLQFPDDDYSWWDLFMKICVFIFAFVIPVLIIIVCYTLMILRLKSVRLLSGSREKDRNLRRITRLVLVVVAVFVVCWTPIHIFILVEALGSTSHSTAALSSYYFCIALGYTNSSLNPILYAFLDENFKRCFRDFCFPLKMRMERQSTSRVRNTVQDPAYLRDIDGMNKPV

| Compound | Ki (hKOR; [5]) [nM] | Ki (hKOR; [6]) [nM] | Ki (hDOR; [7]) [nM] | Ki (hDOR; [8]) [nM] | Ki (α2A adrenergic receptor; [9]) [nM] | Ki (α2A adrenergic receptor; [10]) [nM] | Emax (hMOR [2]; read-out: MOR Emax ± SEM (%)) [%] | Ki (α2C adrenergic receptor; [11]) [nM] | Ki (hKOR; [12]) [nM] | Ki (hKOR; [13]) [nM] | further results |
| --- | --- | --- | --- | --- | --- | --- | --- | --- | --- | --- | --- |
| CC[C@@H]1CN2CCc3c([nH]c4ccccc34)[C@@H]2C[C@@H]1/C(=C\OC)C(=O)OC [Corynantheidine, reference compound] | 4060 ± 969 | 1030 ± 162 | 2790 ± 171 | 2410 ± 1200 | 351 ± 58.7 | 68 ± 12 | 8.32 ± 3.4 | 135 ± 12.5 |  |  | SR: Selectivity Ratio (KiMOR/Kiα2A) (hMOR [1]; Table 3-1): 0.97; Ki (hMOR [1]; Table 3-7, human MOR, read-out: MOR Ki (nM ± SEM)): 450 ± 100 nM; Ki (hMOR [1]; Table B1′, read-out: MOR Ki ± SEM): 2520 ± 372 nM |
| CC[C@@H]1CN2CCc3c([nH]c4cccc(OC)c34)[C@@H]2C[C@@H]1/C(=C\OC)C(=O)OC [Mitragynine, mitragynine, reference compound] | 1530 ± 485 | 1530 ± 143 | 6800 ± 721 | 6800 ± 721 | 4090 ± 273 | 4090 ± 273 | 3.97 ± 9.5 | 4040 ± 417 | 1530 | 264 | Ki (hDOR; Table A1, data summary #1, read-out: DOR Ki ± SEM): 6800 nM; Ki (hDOR; Table A4, data summary #2, read-out: DOR Ki ± SEM): 1950 nM; Ki (α2A adrenergic receptor; Table A1, data summary #1, read-out: Alpha2A Ki ± SEM): 4090 nM; Ki (α2A adrenergic receptor; Table A4, data summary #2, read-out: Alpha2A Ki ± SEM): 1350 nM; Ki (α2A adrenergic receptor; Table B1, mean ± SEM, 3 independent experiments, read-out: Alpha2A Ki ± SEM): 709 ± 91.2 nM; Ki (α2A adrenergic receptor; Table B2, mean ± SEM, 3 independent experiments, read-out: Alpha2A Ki ± SEM): 709 ± 91.2 nM; Emax (hMOR [2]; read-out: MOR Emax ± SEM (% DAMGO), Table A1, data summary #1): 3.97%; Whole liver clearance, CL int, H [3]: 35.5 mL/min/kg; Ki (α2C adrenergic receptor; Alpha2C Ki ± SEM (nM), Table A1, data summary #1): 4040 nM; Ki (α2C adrenergic receptor; Alpha2C Ki ± SEM (nM), Table B2, mean ± SEM, 3 independent experiments): 4090 ± 372 nM |
| CC[C@@H]1CN2CCc3c([nH]c4cccc(OC)c34)[C@@H]2C[C@@H]1/C(=C\OC)C(=O)Nc1ccccc1 [SUSM-528, (E)-2-((2S,3S,12bS)-3-ethyl-8-methoxy-1,2,3,4,6,7,12,12b-octahydroindolo[2,3-a]quinolizin-2-yl)-3-methoxy-N-phenylacrylamide] |  |  |  |  |  |  |  |  | > 10000 | 6510 ± 4660 | Ki (hDOR; DOR Ki ± SEM (nM), Table A4, data summary #2): > 10000 nM; Ki (α2A adrenergic receptor; Alpha2A Ki ± SEM (nM), Table A1, data summary #1): 6580 ± 2320 nM; Ki (α2A adrenergic receptor; Alpha2A Ki ± SEM (nM), Table A4, data summary #2): 6580 ± 2320 nM; Ki (hMOR [1]; Table A1, data summary #1, read-out: MOR Ki ± SEM): 7770 ± 3620 nM; Ki (hMOR [1]; Table A4, data summary #2, read-out: MOR Ki ± SEM): 498 ± 118 nM; functional activity in cAMP assay (hMOR [4]): agonist, however its potency was less than DAMGO; functional activity in cAMP assay (hMOR [4]; listed as SUSM 528): agonist, but less potent than DAMGO |
